In this assay the target is human complement factor B (CVF-Bb complex) (Homo sapiens (Human), UniProt P00751). The experiment in a line: Human Complement Factor B ELISA Assay. The assay is classed as biochemical. The settings on record: CVF-Bb complex 3 nM, 1 hour preincubation with compound at room temperature, human C3 substrate 1 μM, C3a quantified by ELISA; read-out: Factor B IC50. The gist of the method:
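Preformed CVF-Bb complex (3 nM; cobra venom factor with recombinant human factors B and D) preincubated with compound 1 h, RT, in PBS pH 7.4, 10 mM MgCl2, 0.05% CHAPS. Plasma C3 added at 1 μM final for 1 h, then stopped; C3a product measured by ELISA, IC50 from % inhibition.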

The structures appear in SMILES notation.

Regarding `COc1cc2c(N)nc(N3CCN(C(=O)C[C@@H](NC(CF)CF)c4ccc(F)cc4)CC3)nc2c(F)c1OC` [Example 87, (R)-1-(4-(4-amino-8-fluoro-6,7-dimethoxyquinazolin-2-yl)piperazin-1-yl)-3-(1,3-difluoropropan-2-ylamino)-3-(4-fluorophenyl)propan-1-one], the IC50 was determined as 40 nM.
On to `COc1cc2c(N)nc(N3CCN(C(=O)C[C@@H](NCC(F)(F)F)c4ccc(F)cc4)CC3)nc2c(F)c1OC` [Example 88, (R)-1-[4-(4-Amino-8-fluoro-6,7-dimethoxy-quinazolin-2-yl)-piperazin-1-yl]-3-(4-fluoro-phenyl)-3-(2,2,2-trifluoro-ethylamino)-propan-1-one], for which the IC50 amounted to 30 nM.
As for `COc1cc2c(N)nc(N3CCN(C(=O)C[C@@H](NC(C)C)c4ccc(F)cc4)CC3)nc2c(F)c1OC` [Example 89, (R)-1-[4-(4-Amino-8-fluoro-6,7-dimethoxy-quinazolin-2-yl)-piperazin-1-yl]-3-(4-fluoro-phenyl)-3-isopropylamino-propan-1-one], the figure is 30 nM; as for `CCN[C@H](CC(=O)N1CCN(c2nc(N)c3cc(OC)c(OC)c(F)c3n2)CC1)c1ccc(C#N)cc1` [Example 90, (R)-4-(3-(4-(4-amino-8-fluoro-6,7-dimethoxyquinazolin-2-yl)piperazin-1-yl)-1-(ethylamino)-3-oxopropyl)benzonitrile], 1 nM.
Turning to `COc1cc2c(N)nc(N3CCN(C(=O)C[C@@H](NC(C)C)c4ccc(F)c(C#N)c4)CC3)nc2c(F)c1OC` [Example 91, (R)-5-(3-(4-(4-amino-8-fluoro-6,7-dimethoxyquinazolin-2-yl)piperazin-1-yl)-1-(isopropylamino)-3-oxopropyl)-2-fluorobenzonitrile], the IC50 was found to be 12 nM.
For `CCCN[C@H](CC(=O)N1CCN(c2nc(N)c3cc(OC)c(OC)c(F)c3n2)CC1)c1ccc(Cl)s1` [Example 92, (R)-1-(4-(4-amino-8-fluoro-6,7-dimethoxyquinazolin-2-yl)piperazin-1-yl)-3-(5-chlorothiophen-2-yl)-3-(propylamino)propan-1-one] the value was 8 nM.
Take `COc1cc2c(N)nc(N3CCN(C(=O)C[C@@H](NCC4CC4)c4ccsc4)CC3)nc2c(F)c1OC` [Example 93, (R)-1-(4-(4-amino-8-fluoro-6,7-dimethoxyquinazolin-2-yl)piperazin-1-yl)-3-(cyclopropylmethylamino)-3-(thiophen-3-yl)propan-1-one]: the IC50 was found to be 4 nM.
As for `COCCCN[C@H](CC(=O)N1CCN(c2nc(N)c3cc(OC)c(OC)c(F)c3n2)CC1)c1ccc(F)cc1` [Example 94, (R)-1-(4-(4-amino-8-fluoro-6,7-dimethoxyquinazolin-2-yl)piperazin-1-yl)-3-(4-fluorophenyl)-3-(3-methoxypropylamino)propan-1-one], the figure is 6 nM.
With `COc1cc2c(N)nc(N3CCN(C(=O)C[C@@H](NC(C)C)c4ccc(C#N)cc4)CC3)nc2c(F)c1OC` [Example 95, (R)-4-(3-(4-(4-amino-8-fluoro-6,7-dimethoxyquinazolin-2-yl)piperazin-1-yl)-1-(isopropylamino)-3-oxopropyl)benzonitrile], the IC50 was 3 nM.
As for `COc1cc2c(N)nc(N3CCN(C(=O)C[C@H](c4ccc(F)cc4)N4CCC4)CC3)nc2c(F)c1OC` [Example 96, (R)-1-(4-(4-amino-8-fluoro-6,7-dimethoxyquinazolin-2-yl)piperazin-1-yl)-3-(azetidin-1-yl)-3-(4-fluorophenyl)propan-1-one], the figure is 10 nM; as for `COc1cc2c(N)nc(N3[C@H](C)CN(C(=O)C[C@@H](NC(C)C)c4ccc(C#N)cc4)C[C@@H]3C)nc2c(F)c1OC` [Example 97, 4-((R)-3-((3R,5S)-4-(4-amino-8-fluoro-6,7-dimethoxyquinazolin-2-yl)-3,5-dimethylpiperazin-1-yl)-1-(isopropylamino)-3-oxopropyl)benzonitrile], 11 nM.
As to `COc1cc2c(N)nc(N3CCN(C(=O)C[C@@H](NCCF)c4ccc(F)cc4)CC3)nc2c(F)c1OC` [Example 98], the IC50 stood at 6 nM.
For `COc1cc2c(N)nc(N3CCN(C(=O)C[C@H](c4ccc(F)cc4)N4CCCCC4)CC3)nc2c(F)c1OC` [Example 99, (R)-1-[4-(4-Amino-8-fluoro-6,7-dimethoxy-quinazolin-2-yl)-piperazin-1-yl]-3-(4-fluoro-phenyl)-3-piperidin-1-yl-propan-1-one] the value was 6 nM; for `COCCN[C@H](CC(=O)N1CCN(c2nc(N)c3cc(OC)c(OC)c(F)c3n2)CC1)c1ccc(F)cc1` [Example 100, (R)-1-[4-(4-Amino-8-fluoro-6,7-dimethoxy-quinazolin-2-yl)-piperazin-1-yl]-3-(4-fluoro-phenyl)-3-(2-methoxy-ethylamino)-propan-1-one], 20 nM; for `COc1cc2c(N)nc(N3CCN(C(=O)C[C@@H](NC(C)C)c4ccc(F)cn4)CC3)nc2c(F)c1OC` [Example 101, (R)-1-[4-(4-Amino-8-fluoro-6,7-dimethoxy-quinazolin-2-yl)-piperazin-1-yl]-3-(5-fluoro-pyridin-2-yl)-3-isopropylamino-propan-1-one], 13 nM.
Regarding `COc1cc2c(N)nc(N3CCN(C(=O)C[C@@H](NCC4(C)COC4)c4ccc(C#N)cc4)CC3)nc2c(F)c1OC` [Example 102], the IC50 was found to be 1 nM.
Take `COc1cc2c(N)nc(N3CCN(C(=O)C[C@H](c4ccc(F)cc4)N4CCCC4)CC3)nc2c(F)c1OC` [Example 103]: the IC50 is 15 nM.
Turning to `COc1cc2c(N)nc(N3CCN(C(=O)[C@@H]4CCc5ccccc5[C@@H]4N)CC3)nc2c(F)c1OC` [Example 104, [4-(4-Amino-8-fluoro-6,7-dimethoxy-quinazolin-2-yl)-piperazin-1-yl]-((1R,2R)-1-amino-1,2,3,4-tetrahydro-naphthalen-2-yl)-methanone], the IC50 is 760 nM.
For `COc1cc2c(N)nc(N3CCN(C(=O)[C@@H]4CCc5ccccc5[C@@H]4N)C[C@@H]3C)nc2c(F)c1OC` [Example 105, [(S)-4-(4-Amino-8-fluoro-6,7-dimethoxy-quinazolin-2-yl)-3-methyl-piperazin-1-yl]-((1R,2R)-1-amino-1,2,3,4-tetrahydro-naphthalen-2-yl)-methanone] the value was 1070 nM; for `CC[C@H]1CN(C(=O)[C@@H]2CCc3ccccc3[C@@H]2N)CCN1c1nc(N)c2cc(OC)c(OC)c(F)c2n1` [Example 106, [(S)-4-(4-Amino-8-fluoro-6,7-dimethoxy-quinazolin-2-yl)-3-ethyl-piperazin-1-yl]-((1R,2R)-1-amino-1,2,3,4-tetrahydro-naphthalen-2-yl)-methanone], 2660 nM.
As for `COc1cc2c(N)nc(N3CCN(C(=O)[C@@H]4CCc5ccccc5[C@@H]4N)C[C@@H]3c3ccccc3)nc2c(F)c1OC` [Example 107, [(S)-4-(4-Amino-8-fluoro-6,7-dimethoxy-quinazolin-2-yl)-3-phenyl-piperazin-1-yl]-((1R,2R)-1-amino-1,2,3,4-tetrahydro-naphthalen-2-yl)-methanone], the figure is 240 nM.
With `COc1cc2c(N)nc(N3CCN(C(=O)C[C@@H]4CCCN4CC(C)C)CC3)nc2c(F)c1OC` [Example 108, (S)-1-(4-(4-amino-8-fluoro-6,7-dimethoxyquinazolin-2-yl)piperazin-1-yl)-2-(1-isobutylpyrrolidin-2-yl)ethanone], the IC50 is 170 nM.
As for `COc1cc2c(N)nc(N3CCN(C(=O)C[C@@H]4CCN4)CC3)nc2c(F)c1OC` [Example 109, 1-[4-(4-Amino-8-fluoro-6,7-dimethoxy-quinazolin-2-yl)-piperazin-1-yl]-2-(S)-azetidin-2-yl-ethanone], the figure is 4270 nM; as for `COc1cc2c(N)nc(N3CCN(C(=O)C[C@@H]4CCCN4)CC3)nc2c(F)c1OC` [Example 110, 1-[4-(4-Amino-8-fluoro-6,7-dimethoxy-quinazolin-2-yl)-piperazin-1-yl]-2-(S)-pyrrolidin-2-yl-ethanone], 140 nM; as for `COc1cc2c(N)nc(N3CCN(C(=O)C[C@@H]4CC[C@H](c5ccccc5)N4)CC3)nc2c(F)c1OC` [Example 111, 1-[4-(4-Amino-8-fluoro-6,7-dimethoxy-quinazolin-2-yl)-piperazin-1-yl]-2-((2S,5R)-5-phenyl-pyrrolidin-2-yl)-ethanone], 380 nM.
As for `COc1cc2c(N)nc(N3CCN(C(=O)CC4NCc5ccccc54)CC3)nc2c(F)c1OC` (stereo not drawn) [Example 112, 1-[4-(4-Amino-8-fluoro-6,7-dimethoxy-quinazolin-2-yl)-piperazin-1-yl]-2-(2,3-dihydro-1H-isoindol-1-yl)-ethanone], the figure is 350 nM; as for `COc1cc2c(N)nc(N3CCN(C(=O)C[C@@H]4CCCCN4)CC3)nc2c(F)c1OC` [Example 113, 1-[4-(4-Amino-8-fluoro-6,7-dimethoxy-quinazolin-2-yl)-piperazin-1-yl]-2-(S)-piperidin-2-yl-ethanone], 230 nM.
For `COc1cc2c(N)nc(N3CCN(C(=O)C[C@@H]4CCCNC4)CC3)nc2c(F)c1OC` [Example 114, 1-[4-(4-Amino-8-fluoro-6,7-dimethoxy-quinazolin-2-yl)-piperazin-1-yl]-2-(S)-piperidin-3-yl-ethanone] the value was 3870 nM; for `COc1cc2c(N)nc(N3CCN(C(=O)C[C@@H]4CCCN4)C[C@@H]3C)nc2c(F)c1OC` [Example 115, 1-[(S)-4-(4-Amino-8-fluoro-6,7-dimethoxy-quinazolin-2-yl)-3-methyl-piperazin-1-yl]-2-(S)-pyrrolidin-2-yl-ethanone], 320 nM; for `CC[C@H]1CN(C(=O)C[C@@H]2CCCN2)CCN1c1nc(N)c2cc(OC)c(OC)c(F)c2n1` [Example 116, 1-[(S)-4-(4-Amino-8-fluoro-6,7-dimethoxy-quinazolin-2-yl)-3-ethyl-piperazin-1-yl]-2-(S)-pyrrolidin-2-yl-ethanone], 540 nM.

The record behind these values is patent publication US9452990B2, “Complement pathway modulators and uses thereof” (NOVARTIS AG, priority 2012, dated 2016).
